Experimental data from patent publication US4916065A (priority 1988, dated 1990).
Values after ≈ are worked out from the molar mass of the structure shown.

Legend:
[1] = test system: Propionibacterium acnes A21933; assay: Antibacterial MIC, serial agar dilution; type: cell-based; details: Cutibacterium acnes, anaerobic, GAM agar
[2] = test system: Clostridium difficile A21675; assay: Antibacterial MIC, serial agar dilution; type: cell-based; details: Clostridioides difficile, anaerobic, GAM agar, clindamycin-resistant
[3] = test system: Clostridium perfringens A9635; assay: microbe, parasite or virus in culture; type: cell-based
[4] = test system: Peptostreptococcus anaerobius A21905; assay: Antibacterial MIC, serial agar dilution; type: cell-based; details: anaerobic, GAM agar, read-out: MIC
[5] = test system: Bacteroides fragilis A22693; assay: Antibacterial MIC, serial agar dilution; type: cell-based; details: anaerobic, GAM agar
[6] = test system: Bacteroides fragilis A22534; assay: Antibacterial MIC, serial agar dilution; type: cell-based; details: anaerobic, GAM agar, ampicillin-resistant, read-out: MIC
Micrococcus luteus 1001 = assay: Antibacterial MIC, serial agar dilution; type: cell-based; details: aerobic, nutrient agar
[7] = test system: Escherichia coli A20341-1; assay: Antibacterial MIC, serial agar dilution; type: cell-based; details: A203411, aerobic, nutrient agar, ampicillin-resistant
[8] = test system: Morganella morganii A9553; assay: Antibacterial MIC, serial agar dilution; type: cell-based; details: aerobic, nutrient agar
[9] = test system: Staphylococcus epidermidis A22152; assay: Antibacterial MIC, serial agar dilution; type: cell-based; details: aerobic, nutrient agar, kanamycin-resistant
Proteus mirabilis A9554 = assay: Antibacterial MIC, serial agar dilution; type: cell-based; details: aerobic, nutrient agar
Escherichia coli A9624 = assay: Antibacterial MIC, serial agar dilution; type: cell-based; details: aerobic, nutrient agar, kanamycin-resistant
[10] = test system: Enterococcus faecalis A9612; assay: Antibacterial MIC, serial agar dilution; type: cell-based; details: aerobic, nutrient agar
[11] = test system: Staphylococcus aureus A20234; assay: Antibacterial MIC, serial agar dilution; type: cell-based; details: aerobic, nutrient agar, kanamycin-resistant
Escherichia coli NIHJ = assay: Antibacterial MIC, serial agar dilution; type: cell-based; details: aerobic, nutrient agar
[12] = test system: Serratia marcescens A20222; assay: Antibacterial MIC, serial agar dilution; type: cell-based; details: aerobic, nutrient agar
[13] = test system: Bacillus subtilis PCI-219; assay: Antibacterial MIC, serial agar dilution; type: cell-based; details: PCI219, aerobic, nutrient agar
[14] = test system: Staphylococcus epidermidis D153; assay: Antibacterial MIC, serial agar dilution; type: cell-based; details: aerobic, nutrient agar
[15] = test system: Staphylococcus aureus A15097; assay: Antibacterial MIC, serial agar dilution; type: cell-based; details: aerobic, nutrient agar, methicillin-resistant
[16] = test system: Klebsiella pneumoniae A20680; assay: Antibacterial MIC, serial agar dilution; type: cell-based; details: aerobic, nutrient agar, kanamycin-resistant
Escherichia coli A20665 = assay: Antibacterial MIC, serial agar dilution; type: cell-based; details: aerobic, nutrient agar, kanamycin-resistant
[17] = test system: Staphylococcus aureus BX1633; assay: Antibacterial MIC, serial agar dilution; type: cell-based; details: aerobic, nutrient agar, ampicillin-resistant
[18] = test system: Staphylococcus aureus Smith; assay: Antibacterial MIC, serial agar dilution; type: cell-based; details: aerobic, nutrient agar
[19] = test system: Pseudomonas aeruginosa A9930; assay: Antibacterial MIC, serial agar dilution; type: cell-based; details: aerobic, nutrient agar
[20] = test system: Klebsiella pneumoniae D11; assay: Antibacterial MIC, serial agar dilution; type: cell-based; details: aerobic, nutrient agar
Escherichia coli Juhl = assay: Antibacterial MIC, serial agar dilution; type: cell-based; details: aerobic, nutrient agar
[21] = test system: Enterobacter cloacae A9659; assay: Antibacterial MIC, serial agar dilution; type: cell-based; details: aerobic, nutrient agar
Proteus vulgaris A9436 = assay: Antibacterial MIC, serial agar dilution; type: cell-based; details: aerobic, nutrient agar
[22] = test system: Staphylococcus aureus 209P; assay: Antibacterial MIC, serial agar dilution; type: cell-based; details: aerobic, nutrient agar
HCT-116 = assay: In vitro cytotoxicity; type: cell-based; details: Homo sapiens, 72 hours, neutral red, 540 nm
Moser = assay: In vitro cytotoxicity; type: cell-based; details: Homo sapiens; 72 hours, neutral red, 540 nm
[23] = test system: RNA synthesis in L1210 cells; assay: Inhibition of macromolecule synthesis in L1210 leukemia; type: cell-based; details: Mus musculus; 14C-uridine, L1210, 15 min + 60 min, 37° C.
[24] = test system: Protein synthesis in L1210 cells; assay: as above; type: cell-based; details: Mus musculus; 3H-leucine, L1210, 15 min + 60 min, 37° C.
[25] = test system: DNA synthesis in L1210 cells; assay: as above; type: cell-based; details: Mus musculus; 3H-thymidine, L1210, 15 min + 60 min, 37° C.
B16-F10 = assay: In vitro cytotoxicity; type: cell-based, murine; details: Mus musculus, 72 hours, neutral red, 540 nm

Compound: CCC[C@@H]1C[C@@H](C(=O)N[C@@H]([C@H]2O[C@H](SC)[C@H](O)[C@@H](O)[C@H]2O)[C@H](C)Cl)N(C)C1 [Clindamycin, reference compound]
- MIC [1]: 0.4 µg/mL (≈ 0.941 µM)
- MIC [2]: > 100 µg/mL
- MIC [3]: 0.025 µg/mL (≈ 0.0588 µM)
- MIC [4]: 0.4 µg/mL (≈ 0.941 µM)
- MIC [5]: 0.05 µg/mL (≈ 0.118 µM)
- MIC [6]: 0.8 µg/mL (≈ 1.88 µM)

Compound: NC[C@H]1O[C@H](O[C@H]2[C@H](O)[C@@H](O[C@H]3O[C@H](CO)[C@@H](O)[C@H](N)[C@H]3O)[C@H](N)C[C@@H]2N)[C@H](O)[C@@H](O)[C@@H]1O [Kanamycin A, reference compound]
- MIC (Micrococcus luteus 1001): 3.1 µg/mL (≈ 6.4 µM)
- MIC [7]: 6.3 µg/mL (≈ 13 µM)
- MIC [8]: 3.1 µg/mL (≈ 6.4 µM)
- MIC [9]: 12.5 µg/mL (≈ 25.8 µM)
- MIC (Proteus mirabilis A9554): 3.1 µg/mL (≈ 6.4 µM)
- MIC (Escherichia coli A9624): > 100 µg/mL
- MIC [10]: 25 µg/mL (≈ 51.6 µM)
- MIC [11]: 100 µg/mL (≈ 206 µM)
- MIC (Escherichia coli NIHJ): 1.6 µg/mL (≈ 3.3 µM)
- MIC [12]: 6.3 µg/mL (≈ 13 µM)
- MIC [13]: 0.2 µg/mL (≈ 0.413 µM)
- MIC [14]: 0.4 µg/mL (≈ 0.826 µM)
- MIC [15]: 0.8 µg/mL (≈ 1.65 µM)
- MIC [16]: > 100 µg/mL
- MIC (Escherichia coli A20665): > 100 µg/mL
- MIC [17]: 0.8 µg/mL (≈ 1.65 µM)
- MIC [18]: 0.8 µg/mL (≈ 1.65 µM)
- MIC [19]: 25 µg/mL (≈ 51.6 µM)
- MIC [20]: 0.4 µg/mL (≈ 0.826 µM)
- MIC (Escherichia coli Juhl): 6.3 µg/mL (≈ 13 µM)
- MIC [21]: 3.1 µg/mL (≈ 6.4 µM)
- MIC (Proteus vulgaris A9436): 0.4 µg/mL (≈ 0.826 µM)
- MIC [22]: 0.2 µg/mL (≈ 0.413 µM)

Compound: CO[C@@]12[C@H](COC(N)=O)C3=C(C(=O)C(C)=C(N)C3=O)N1C[C@@H]1N[C@@H]12 [Mitomycin C, reference compound]
- IC50 (HCT-116): 0.8 µg/mL (≈ 2.39 µM)
- IC50 (Moser): 1.2 µg/mL (≈ 3.59 µM)
- IC50 [23]: > 100 µg/mL
- IC50 [24]: > 100 µg/mL
- IC50 [25]: 1.7 µg/mL
- IC50 (B16-F10): 0.5 µg/mL (≈ 1.5 µM)
